From patent US4990521A, “4-(aroylamino)piperidine-butanimide derivatives” (Janssen Pharmaceutica, priority 1989, dated 1991) come the findings set out here.

Assay [1] can be described thus: Ricinus Oil Test in Rats (antidiarrheal activity). The format is in vivo. The following applies: oral; compound 1 hour before 1 ml ricinus oil orally; no diarrhea in 50% of animals 1 hour after ricinus oil; fasted female Wistar rats; 60 min. The source says:
The use of the compounds of formula (I), their N-oxide forms, pharmaceutically acceptable acid-addition salts and stereoisomeric forms thereof in the method of the present invention is based on their useful antidiarrheal activity. This property is clearly evidenced by the experimental data obtained in, for example, the "Ricinus oil Test in Rats". […] By virtue of their useful antidiarrheal activity, it is evident that the compounds of formula (I), their N-oxide forms, pharmaceutically acceptable acid addition salts and stereoisomeric forms can be used in the treatment of diarrhea.
Female Wistar rats were fasted overnight. Each animal was treated orally with a dose level of the compound to be tested. One hour thereafter, the animal received 1 ml of ricinus oil orally. Each animal was kept in an individual cage and 1 hour after the ricinus oil treatment, the presence or absence of diarrhea was noted. The ED50 value was determined as that dose in mg/kg body weight, at which no diarrhea was present in 50% of the tested animals. Said ED50 -values for the compounds of the present invention can be found in the first column of Table 1.

Assay [2] is described as follows: Tail Withdrawal Test in Rats (undesired central effects). Conditions: oral, tail in 55° C. water, suppression of withdrawal response exceeding 10 seconds in 50% of animals, fasted male Wistar rats. It is filed as in vivo. Here is the method: Male Wistar rats were fasted overnight. Each animal was treated orally with a dose level of the compound to be tested. The thus treated rats Were put into individual restraining cages. At various time periods after administration, the lower 5 cm portion of the tail was immersed into a cup filled with water at a constant temperature of 55° C. The typical tail withdrawal response was evaluated during a 10 seconds period after the immersion. ED50 values in mg/kg body weight were determined as that dose of the test compound capable of suppressing in 50% of the tested animals the typical tail withdrawal response during a time period exceeding 10 seconds. Said ED50 values obtained for the compounds of the present invention are gathered in Table 1 column two.

Some results are limits rather than exact numbers.

As for `CC(CC(C(=O)N(C)C)(c1ccccc1)c1ccccc1)N1CCC(NC(=O)c2cccc(C(F)(F)F)c2)C(O)C1` (single isomer, unassigned; (-)) [Compound 55, (-)-(3A,trans)-3-hydroxy-N,N,γ-trimethyl-α,α-diphenyl-4-[[3-(trifluoromethyl)benzoyl]amino]-1-piperidinebutanamide], the “Ricinus Oil Test ED50” value in assay [1] was 1.0 mg/kg body weight. Further, in assay [2], the “Tail Withdrawal Test ED50” value is over 160 mg/kg body weight.
